Reference: patent publication EP0830813B1, “Fungicidal compositions” (Aventis CropScience UK Limited, priority 1996, dated 1998)

Tests used:
Format in all cases: in vivo
[1] = system: Leptosphaeria nodorum; assay: Control of Leptosphaeria nodorum on sprayed winter wheat, assessed 33 days after application; details: spray, vs untreated, average of 4 replicates
Description: (§1) Winter wheat was sprayed with cyprodinil, PBO and mixtures of the two. Thirty three days after application the winter wheat was assessed for levels of Leptosphaeria nodorum compared with untreated cereal, whereby the level of control could be calculated. Results (average of 4 replicates) are shown below.

[2] = system: Erysiphe graminis; assay: Control of Erysiphe graminis infection on sprayed winter wheat, assessed after 30 days; details: spray, average of 4 replicates
Description: as §1, with “below. In a similar experiment levels of Erysiphe graminis infection were determined after 30 days. Results (average of 4 replicates) are shown below.” for “below.”

[3] = system: Leptosphaeria nodorum and Septoria tritici mixed infection; assay: Control of Leptosphaeria nodorum and Septoria tritici mixed infection on sprayed winter wheat, assessed 23 days after application; details: spray, average of 4 replicates
Description: as §1, with “below. In a similar experiment, levels of Leptosphaeria nodorum and Septoria tritici mixed infection were assessed 23 days after application. Results (average of 4 replicates) are shown below.” for “below.”

[4] = system: Elysiphe graminis; assay: Control of Elysiphe graminis infection on sprayed winter wheat, assessed after 14 days; details: spray, average of 3 replicates
Description: as §1, with “below. In a similar experiment levels of […] graminis infection were determined after 14 days. Results (average of 3 replicates) are shown below.” for “below.”

Row | Structure (SMILES) | % control ([1]; 600 g ai / ha) | % control ([2]; 600 g ai / ha) | % control ([3]; 600 g ai / ha) | % control ([4]; 150 g ai/ha) | % control ([4]; 300 g ai/ha) | % control ([4]; 600 g ai/ha) | % control ([1]; 300 g ai / ha) | % control ([2]; 300 g ai / ha) | % control ([3]; 300 g ai / ha)
1 | Cc1cc(C2CC2)nc(Nc2ccccc2)n1 [cyprodinil] | 23.1% | 34.4% | 0.0% | 35% | 67% | 98% | – | – | –
2 | CCCCOCCOCCOCc1cc2c(cc1CCC)OCO2 [PBO, piperonyl butoxide] | – | – | – | – | 0.0% | – | 0.0% | 0.0% | 0.0%
